Patent US20250064762A1, “A SUBSTITUTED AROMATIC DICARBONIC ACID AMIDE AS AN INHIBITOR OF THE FERROPTOSIS SUPPRESSOR PROTEIN-1 (FSP1)” (JULIUS-MAXIMILIANS-UNIVERSITÄT WÜRZBURG, priority 2021, published 2025)

Columns and labels:
human FSP1 = molecular target: T1, human FSP1 (Homo sapiens, UniProt Q9BRQ8); assay: Biolayer interferometry binding kinetics, human FSP1; settings: 25° C.
T1 construct: His6 (N, cleaved yes); made in house; host or cells: Escherichia coli BL21 pG-Tf2
T1 sequence (Q9BRQ8 1-373): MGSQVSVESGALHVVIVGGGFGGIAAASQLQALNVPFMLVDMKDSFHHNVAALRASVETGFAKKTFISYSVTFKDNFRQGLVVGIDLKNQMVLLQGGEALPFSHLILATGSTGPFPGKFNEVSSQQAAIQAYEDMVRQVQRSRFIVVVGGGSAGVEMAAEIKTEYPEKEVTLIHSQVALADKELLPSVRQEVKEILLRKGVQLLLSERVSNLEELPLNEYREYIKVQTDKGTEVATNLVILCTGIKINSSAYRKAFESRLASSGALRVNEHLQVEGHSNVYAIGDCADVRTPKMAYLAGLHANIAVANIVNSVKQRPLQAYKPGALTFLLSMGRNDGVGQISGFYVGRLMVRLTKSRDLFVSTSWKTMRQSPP
Protocol: Purified, AviTag-fused mFSP1 or hFSP1 were enzymatically biotinylated with the E. coli biotin ligase BirA. To this end, FSP1 proteins (48 μM) were incubated with purified GST-BirA in the presence of ATP and D-biotin (Sigma Aldrich) as described (Fairhead et al., 2015). GST-BirA was removed using glutathione Sepharose 4 Fast Flow (GE Healthcare), and samples were dialyzed against TNM (pH 7.4) to remove free biotin.
Biotinylated, AviTag-fused mFSP1 or hFSP1 (1.5 μM in TNM buffer supplemented with 0.005% (v/v) Tween-20) was immobilized on streptavidin-coated biosensors (Super Streptavidin/SSA Dip and Read Biosensors, ForteBio). The sensors were then quenched with 27 μM biocytin (Sigma Aldrich), and binding kinetics were measured at 25° C. on a ForteBio Octet Red 96e instrument. Dissociation was initiated after 90 s. Reference sensors were quenched with 27 μM biocytin. Raw data was double referenced, and a global exponential regression 1:1 model was applied for kinetic analyses. Data are mean values±S.D. of at least n=4 measurements. KD, dissociation constant; Kon, on-rate constant; Koff, off-rate constant.
We also determined the CPBA and iFSP1 on-rate, off-rate and dissociation constants, which are associated with the binding and unbinding reaction of target and inhibitor. […]

cancer cell lines = assay: FIN56 toxicity in a panel of cancer cell lines; format: cell-based, human, mouse, rat
Text: Cell culture media and supplements were from Thermo Fisher Scientific, unless specified otherwise. Mouse embryonic fibroblasts (MEFs) were generated from Pgp-wildtype (Pgp^fl/fl) or heterozygous Pgp-inactivated mouse embryos (Pgp^fl/D34N) as described (Segerer et al., 2016). Human embryonic kidney HEK-AD293 (HEK293) cells (Stratagene), HT-1080 human fibrosarcoma cells, PC3 and Du145 human prostate carcinoma cells, HepG2 human hepatocytic carcinoma (HCC) cells, Hepa 1-6 murine HCC, 4T1 mouse breast carcinoma, Colon-26 mouse colon carcinoma, C6 rat glioblastoma and RAW264.7 mouse monocytes/macrophages (all from LGC Standards) were cultured in Dulbecco's modified Eagle's medium (DMEM, 4.5 g/L glucose) supplemented with 10% (v/v) heat-inactivated fetal calf serum (FCS), 2 mM L-glutamine, 100 U/mL penicillin and 100 μg/mL streptomycin (Pen/Strep). Hepa-1c1c7 murine HCC were grown in alpha MEM without nucleosides (Gibco, cat. no. 31095029) supplemented with 10% FCS and Pen/Strep. JTC-27 rat HCC were cultured in RPMI-1640 with 10% FCS and Pen/Strep. […]
Cells were seeded onto 96-well plates (5,000 cells per well), and treated with serial dilutions of ferroptosis-inducing compounds (erastin, BSO, RSL3, FIN56) or cytotoxic drugs (staurosporine, nocodazole, tunicamycin, paclitaxel, etoposide, menadione, rotenone, FCCP, carboplatin) in the absence or presence of CPBA or iFSP1 (100 μM or 10 μM, respectively; unless stated otherwise) or the DMSO solvent control. Ferroptotic cell death was evaluated by incubating in the absence or presence of liproxstatin-1 (100 nM), ferrostatin-1 (200 nM), or deferoxamine (100 μM). Cell viability was assessed after 16 h using AquaBluer as an indicator of viable cells according to the manufacturer's recommendations (MultiTarget Pharmaceuticals, LLC). Fluorescence (excitation, 540 nm; emission, 590 nm) was analyzed on a Clariostar microplater reader. […]

Row | SMILES | affinity for human FSP1 (human FSP1) | effect in human cancer cell lines (cancer cell lines; human cancer cell lines) | effect in mouse or rat cancer cell lines (cancer cell lines; mouse or rat cancer cell lines (FIG. 20A)) | sensitization of cancer cell lines to FIN56-induced ferroptosis (cancer cell lines; CPBA 100 μM, iFSP1 10 μM (3 μM in HepG2), 16 h)
1 | Cc1ccc(-c2c(C#N)c(N)n3c(nc4ccccc43)c2C#N)cc1 [iFSP1, reference compound] | the affinity of iFSP1 for human FSP1 exceeds the affinity of CPBA for human FSP1 | able to inhibit endogenous and overexpressed FSP1 in human cancer cell lines, and thereby sensitize these cells to ferroptotic death | completely ineffective in mouse or rat cancer cell lines | –
2 | O=C(Nc1ccccc1C(=O)O)c1ccc(Oc2ccc(C(=O)Nc3ccccc3C(=O)O)cc2)cc1 [CPBA, 2-[[4-[4-[(2-carboxyphenyl)carbamoyl]phenoxy]benzoyl]amino]-benzoic acid] | the affinity of iFSP1 for human FSP1 exceeds the affinity of CPBA for human FSP1 | – | – | sensitizes cancer cell lines of different species and tumor types to ferroptosis
